Test results: patent US4307036A, “Method for preparing a mixture of stereoisomers of α-cyano-3-phenoxybenzyl 2-(4-substituted-phenyl)isovalerates” (Sumitomo Chemical Company, Limited, priority 1978, dated 1981)
Converted amounts (≈) assume the structure as drawn.

What was measured:
[1] = test system: tobacco cut worm (Spodoptera litura); assay: Insecticidal activity of fenvalerates on tobacco cut worm, leaf dip, 24 h (Test Example 1); assay type: in vivo; details: for Relative Efficacy: Activity of Fenvalerate (common product) was taken as 100; for LC50 (concentration required for 50% death) / LC50: fourth instar larvae, 24 hours, 20% emulsifiable concentrate diluted; for LC50 (concentration required for 50% death): 1440 min; for LC50: Spodoptera litura, foliar, 24 h, read-out: LC50 (concentration required for 50% death)
Description: Insecticidal activity of fenvalerates on tobacco cut worm (Spodoptera litura)
Fenvalerate Y obtained in Example 4, fenvalerate Y-rich fenvalerate obtained in Examples 5 and 6 and common fenvalerate were formulated into a 20% emulsifiable concentrate as usual (Composition: above pesticide 20%; xylene 70%; and Sorpol 3005X (a registered trademark of Toho Kagaku Co.) 10%). These emulsifiable concentrates were each diluted with water to a pre-determined concentration, and mixed with a spreader (Shin-Rino, a registered trademark of Nippon Noyaku Co.) of 3,000 times by weight based on the diluted liquor.
(§1) The dried leaves were placed in a plastic cup (diameter 10 cm, height 4 cm) at a rate of 2 leaves/cup, and the fourth instar larvae of tobacco cut worms were liberated therein. The dead and alive were examined after 24 hours and the values of LC50 (concentration required for 50% death) were obtained.
(§2) Experiments of three replications were carried out using 10 larvae per group.

[2] = test system: housefly (Musca domestica); assay: Insecticidal activity of methoxy and ethoxy esters on housefly, topical application, 24 h (Test Example 8); assay type: in vivo; details: CSMA-strain female adults, 0.5 μl to ventral thorax
Description: Insecticidal activity of S phenylisovalerates (methoxy and ethoxy esters) on housefly (Musca domestica)
(§3) Each of S phenylisovalerate Y's and Y-rich S phenylisovalerates obtained in Examples 21 to 24 and common racemates was diluted with acetone to a pre-determined concentration, and 0.5 μl of the solution was applied to the ventral thorax of CSMA-strain housefly female adults by means of a microsyringe. The adults were then liberated in a plastic cup (diameter 11 cm) wherein a bait (3% sugar water) was placed. The dead and alive were examined after 24 hours, and the values of LD50 were obtained.

[3] = test system: tobacco cut worm (Spodoptera litura); assay: Insecticidal activity of difluoromethoxy esters on tobacco cut worm, leaf dip, 24 h (Test Example 7); assay type: in vivo; details: foliar, read-out: LC50 (concentration required for 50% death)
Description: Insecticidal activity of α-cyano-3-phenoxybenzyl 2-(4-difluoromethoxyphenyl)isovalerates on tobacco cut worm (Spodoptera litura)
Emulsifiable concentrates of difluoromethoxy ester Y and Y-rich difluoromethoxy ester formulated according to Preparation Example 12 and a 20% emulsifiable concentrate of common difluoromethoxy ester formulated in the same manner were each diluted with water to a predetermined concentration, and mixed with a spreader (Shin-Rino, a registered trademark of Nippon Noyaku Co.) of 3,000 times by weight based on the diluted liquor.
as §1, §2

[4] = test system: Houseflies (Musca domestica Linne); assay: Spray test of difluoromethoxy esters on housefly (Test Example 6 A); assay type: in vivo
Description: (§4) Insecticidal activity of α-cyano-3-phenoxybenzyl 2-(4-difluoromethoxyphenyl)isovalerates on housefly, pea aphid and corn earworm
A. Housefly: Houseflies (Musca domestica Linne) were tested by placing 50 4- to 5-day old houseflies into spray cages and spraying with 0.6 ml of a solution of test compound. After spraying, the flies were anesthetized with CO2 and transferred to a recovery cage containing a milk pad for food. The cages were held for 18-20 hours after which mortality counts were made. Both dead and moribund were counted. The tests were conducted employing several different dosage rates of each test compound.
(§5) In each instance, the toxicity of the compound of the invention was compared to that of a standard pesticide (Parathion), its relative toxicity then being expressed in terms of the relationship between the amount of compound of the invention and the amount of the standard pesticide required to produce the same percentage (50) of mortality in the test insects or acarine. By assigning the standard pesticide an arbitrary rating of 100, the toxicities of the compounds of the invention were expressed in terms of the toxicity indexes, which compares the toxicity of the compounds of the invention with that of the standard pesticide.

[5] = test system: Corn earworm larvae (Heliothis zea Boddie); assay: Spray test of difluoromethoxy esters on corn earworm larvae (Test Example 6 C); assay type: in vivo
Description: as §4
C. Corn Earworm: Corn earworm larvae (Heliothis zea Boddie) were tested by spraying broad bean plants with dilutions of acetone solution of test compound into water containing an emulsifier. Immediately after spraying, 5 larvae were transferred to each plant and held for 44-46 hours, at which time the dead and moribund larvae were counted. The tests were conducted employing several different dosage rates for each test compound.
as §5

[6] = test system: Pea aphids (Acyrthosiphon pisum Harris); assay: Spray test of difluoromethoxy esters on pea aphid (Test Example 6 B); assay type: in vivo
Description: as §4
B. Pea Aphid: Pea aphids (Acyrthosiphon pisum Harris) were tested by placing about 100 aphids on broad bean plants. The plants were sprayed with dilutions of acetone solution of test compound into water containing an emulsifier and held in containers under laboratory conditions for 18 to 20 hours at which time the living aphids in the containers were counted. The tests were conducted employing several different dosage rates of each test compound.
as §5

[7] = test system: housefly (Musca domestica); assay: Insecticidal activity of fenvalerates on housefly, topical application, 24 h (Test Example 2); assay type: in vivo; details: for Relative Efficacy: Activity of Fenvalerate (common product) was taken as 100; for LD50: CSMA-strain female adults, 0.5 μl to ventral thorax, 24 hours
Description: Insecticidal activity of fenvalerates on housefly (Musca domestica)
as §3, with “pesticide used” for “of S phenylisovalerate Y's and Y-rich S phenylisovalerates obtained”, “4” for “21 to 24”, “5” for “common racemates”

[8] = Insecticidal and acaricidal activity, general statements; assay type: in vivo; details: diastereomers separated by recrystallization from hexane
[9] = Solubility, general statement; assay type: physicochemical; details: compared with fenvalerate Aα
[10] = reported in literature; cited from earlier work
[11] = fourth instar larvae, 24 hours, emulsifiable concentrate diluted
[12] = Parathion = 100, 50% mortality, 18-20 hours, * High Knockdown
[13] = Parathion = 100, 50% mortality, 44-46 hours, * High Knockdown
[14] = Parathion = 100, 50% mortality, 18 to 20 hours, * High Knockdown

## CC(C)C(C(=O)OC(C#N)c1cccc(Oc2ccccc2)c1)c1ccc(Cl)cc1 (stereo not shown) [Example 6]
[1]
  Relative Efficacy: 125
  LC50 (concentration required for 50% death): 5.9 ppm

## CCOc1ccc(C(C(=O)OC(C#N)c2cccc(Oc3ccccc3)c2)C(C)C)cc1 (racemic) [Common Ethoxy Ester (racemate), α-cyano-3-phenoxybenzyl 2-(4-ethoxyphenyl)isovalerate]
[2]
  LD50: 0.54 μg/housefly

## CC(C)C(C(=O)OC(C#N)c1cccc(Oc2ccccc2)c1)c1ccc(OC(F)F)cc1 (racemic) [Common Difluoromethoxy Ester, α-cyano-3-phenoxybenzyl 2-(4-difluoromethoxyphenyl)isovalerate]
[3]; [11]
  LC50: 23 µg/mL (≈ 50.9 µM)
[4]; [12]
  Toxicity Index: 219
[5]; [13]
  Toxicity Index: 773
[6]; [14]
  Toxicity Index: 582

## CC(C)C(C(=O)OC(C#N)c1cccc(Oc2ccccc2)c1)c1ccc(OC(F)F)cc1 (stereo not drawn) [Y-Rich Difluoromethoxy Ester, α-cyano-3-phenoxybenzyl 2-(4-difluoromethoxyphenyl)isovalerate]
[3]; [11]
  LC50: 14 µg/mL (≈ 31 µM)

## CC(C)[C@H](C(=O)O[C@H](C#N)c1cccc(Oc2ccccc2)c1)c1ccc(Cl)cc1 (relative stereo) [Example 4]
[7]
  Relative Efficacy: 207
  LD50: 0.015 μg/housefly
[1]
  Relative Efficacy: 195
  LC50: 3.8 µg/mL (≈ 9.05 µM)

## C#CC(OC(=O)C(c1ccc(Cl)cc1)C(C)C)c1cccc(Oc2ccccc2)c1 (stereo not drawn) [diastereomer having a melting point of 87° to 88° C., α-ethynyl-3-phenoxybenzyl 2-(4-chlorophenyl)isovalerate]
[8]
  insecticidal activity: very weak insecticidal activity

## CC(C)[C@H](C(=O)O[C@H](C#N)c1cccc(Oc2ccccc2)c1)c1ccc(OC(F)F)cc1 (relative stereo) [Difluoromethoxy Ester Y, α-cyano-3-phenoxybenzyl 2-(4-difluoromethoxyphenyl)isovalerate]
[3]; 24 h
  LC50: 12 µg/mL (≈ 26.6 µM)

## CCOc1ccc([C@@H](C(=O)O[C@H](C#N)c2cccc(Oc3ccccc3)c2)C(C)C)cc1 (relative stereo) [Ethoxy Ester Y, α-cyano-3-phenoxybenzyl 2-(4-ethoxyphenyl)isovalerate]
[2]
  LD50: 0.28 μg/housefly

## CC(C)C(C(=O)OC(C#N)c1cccc(Oc2ccccc2)c1)c1ccc(Cl)cc1 (stereo not drawn) [Fenvalerate (common product), α-Cyano-3-phenoxybenzyl 2-(4-chlorophenyl)isovalerate, reference compound]
[7]
  Relative Efficacy: 100
  LD50: 0.031 μg/housefly
[1]
  Relative Efficacy: 100
  LC50 (concentration required for 50% death): 7.4 ppm

## C#CC(OC(=O)C(c1ccc(Cl)cc1)C(C)C)c1cccc(Oc2ccccc2)c1 (stereo not drawn) [diastereomer (m.p. 51°-52° C.), α-ethynyl-3-phenoxybenzyl 2-(4-chlorophenyl)isovalerate]
[8]
  insecticidal activity: higher insecticidal activity

## CC(C)[C@H](C(=O)O[C@H](C#N)c1cccc(Oc2ccccc2)c1)c1ccc(Cl)cc1 (relative stereo) [fenvalerate Y]
[9]
  solubilities: greater than those of fenvalerate Aα
[10]
  insecticidal and acaricidal activity: highly active pesticide

## CC(C)C(C(=O)OC(C#N)c1cccc(Oc2ccccc2)c1)c1ccc(Cl)cc1 (stereo not shown) [Example 5]
[7]
  Relative Efficacy: 172
  LD50: 0.018 μg/housefly
[1]
  Relative Efficacy: 172
  LC50: 4.3 µg/mL (≈ 10.2 µM)

## CC(C)[C@H](C(=O)O[C@H](C#N)c1cccc(Oc2ccccc2)c1)c1ccc(OC(F)F)cc1 (relative stereo) [Same, Y Isomer Pair, α-cyano-3-phenoxybenzyl 2-(4-difluoromethoxyphenyl)isovalerate]
[4]; in vivo
  Toxicity Index: 1100
[5]; in vivo
  Toxicity Index: 1544
[6]; in vivo
  Toxicity Index: 1273

## COc1ccc(C(C(=O)OC(C#N)c2cccc(Oc3ccccc3)c2)C(C)C)cc1 (racemic) [Common Methoxy Ester (racemate), α-cyano-3-phenoxybenzyl 2-(4-methoxyphenyl)isovalerate]
[2]
  LD50: 0.35 μg/housefly

## COc1ccc([C@@H](C(=O)O[C@H](C#N)c2cccc(Oc3ccccc3)c2)C(C)C)cc1 (relative stereo) [Methoxy Ester Y, α-cyano-3-phenoxybenzyl 2-(4-methoxyphenyl)isovalerate]
[2]
  LD50: 0.17 μg/housefly

## CC(C)[C@H](C(=O)O[C@H](C#N)c1cccc(Oc2ccccc2)c1)c1ccc(Cl)cc1 [fenvalerate Aα, (S)-α-cyano-3-phenoxybenzyl (S)-2-(4-substituted-phenyl)isovalerate]
[10]
  insecticidal and acaricidal activity: the most active stereoisomer of the four

## CC(C)[C@H](C(=O)O[C@@H](C#N)c1cccc(Oc2ccccc2)c1)c1ccc(OC(F)F)cc1 (relative stereo) [Same, X Isomer Pair, α-cyano-3-phenoxybenzyl 2-(4-difluoromethoxyphenyl)isovalerate]
[4]; [12]
  Toxicity Index: 47
[5]; [13]
  Toxicity Index: 106
[6]; [14]
  Toxicity Index: 45

## COc1ccc(C(C(=O)OC(C#N)c2cccc(Oc3ccccc3)c2)C(C)C)cc1 (stereo not drawn) [Y-Rich Methoxy Ester, α-cyano-3-phenoxybenzyl 2-(4-methoxyphenyl)isovalerate]
[2]
  LD50: 0.20 μg/housefly

## CCOc1ccc(C(C(=O)OC(C#N)c2cccc(Oc3ccccc3)c2)C(C)C)cc1 (stereo not drawn) [Y-Rich Ethoxy Ester, α-cyano-3-phenoxybenzyl 2-(4-ethoxyphenyl)isovalerate]
[2]
  LD50: 0.46 μg/housefly
